The values below come from patent US6358515B2, “Hydroquinone derivatives” (Senju Pharmaceutical Co., Ltd., priority 1997, dated 2002).

Molecules are shown by their SMILES.

As usually defined, the melting point is the temperature of the solid-liquid transition. In general, IC50 refers to the concentration that gives 50% inhibition. High values mean weaker potency, low ones greater potency.

For data set [1], the system named is Intraocular Pressure of Rabbit. The data set is described as follows: Intraocular pressure lowering effect in rabbits (eye drop instillation, tonometer). Format: in vivo, Male Dutch rabbits. The settings on record: for Intraocular pressure, 1 hr: 1 hr after instillation of 50 μl of 0.5% eye drops into the right eye; for Intraocular pressure, 1 hr / Intraocular pressure, 2 hr / Intraocular pressure, 3 hr / Intraocular pressure, 4 hr / Intraocular pressure, 0 hr: mean ± SD (n = 4-5); for Intraocular pressure, 2 hr: 2 hr after instillation of 50 μl of 0.5% eye drops into the right eye; for Intraocular pressure, 3 hr: 3 hr after instillation of 50 μl of 0.5% eye drops into the right eye; for Intraocular pressure, 4 hr: 4 hr after instillation of 50 μl of 0.5% eye drops into the right eye; for Intraocular pressure, 0 hr: initial value (0 hr) before instillation. As for the experimental part:
The present compound was tested for its intraocular pressure lowering effect.
Male Dutch rabbits of about 2.5 kg body weight were used in the test.
Intraocular pressure was measured by means of a contact type tonometer (ALCON Applanation Pneumatonograph) after instillation of oxybuprocaine hydrochloride [Anelocal (registered trademark) eye drops: SENJU Pharmaceutical Co., Ltd.] into both eyes of the rabbits for local anesthesia.
Eye drops were prepared each containing one of the test compounds at a concentration of 0.5% and 50 μl of it was instilled into the right eye. Intraocular pressure of both eyes was measured over time (0, 1, 2, 3, 4 hours). For analysis, Student t-test was conducted for the intraocular pressure measured at each time against the initial value.

Data set [2] has as its system Blood Pressure of SHR Rat. Briefly: Effect on blood pressure of SHR rat (oral administration). The data set is classed as in vivo, male SHR/Izm rats. The note with it: mean ± SD (n = 4-5); for Blood pressure, 1 hr: 1 hr after 30 mg/kg orally; for Blood pressure, 2 hr: 2 hr after 30 mg/kg orally; for Blood pressure, 3 hr: 3 hr after 30 mg/kg orally; for Blood pressure, 4 hr: 4 hr after 30 mg/kg orally; for Blood pressure, 0 hr: initial value (0 hr) before administration. How it is done: The present compound was tested for its blood pressure lowering effect.
About 25-week old male SHR/Izm rats were used in the test.
Initial value of the blood pressure of rat tail vein was measured with a non-invasive automatic manometer for small animals, UR-5000 (UEDA Seisakusho), and then one of the test compounds 30 mg/kg was orally administered. Blood pressure was measured in the same manner 1, 2, 3 and 4 hours after administration. For analysis, Student t-test was conducted for the blood pressure measured at each time against the initial value.

Data set [3] is described as follows: Radical scavenging ability on the stable radical DPPH. The note with it: for IC50: DPPH radical; for Radical scavenging activity (in words) / Radical scavenging rate (%): DPPH; for Radical scavenging activity (in words): 1-1000 μM; for Radical scavenging rate (%): 20 minutes, absorbance at 517 nm. As for the experimental part: The present compound was tested for its scavenging ability on a stable radical of 1,1-diphenyl-2-picrylhydrazide (DPPH).
The test was carried out according to the method described by Blois, M. S., Nature, 181: 1199 ([…]).
Each of the test compound was dissolved in purified water to prepare 10^−5-10^−2 M test solutions. To 300 μl each of the test solutions was added 2.7 ml of a […] solution of the stable radical, DPPH, in ethanol and stirred. The mixture was allowed to stand for 20 minutes, and absorbance at 517 nm was measured. Radical scavenging ability was determined for each of the test solutions according to the following equation.
Radical scavenging rate (%)=(Absorbance of control−Absorbance of test solution[…])×100
For orientation: Loss of DPPH colour is used to gauge radical scavenging.

Regarding `COc1ccccc1N1CCN(C(Oc2cc(C)c(O)c(OC)c2OC)C(C)O)CC1.Cl` (stereo not shown), the melting point was in the range of 138 to 140 °C.

As to `COc1ccccc1N1CCN(CC(O)COc2cc(C)c(O)cc2C)CC1.Cl.Cl` (stereo not shown), the melting point was 214 to 215 °C (dec.).

With `COc1ccc(N2CCN(CC(O)COc3ccc(O)cc3)CC2)c(OC)c1.Cl.Cl` (stereo not shown), the melting point was 213 to 215 °C (dec.).

`COc1ccc(C)cc1N1CCN(CC(O)COc2ccc(O)cc2)CC1.Cl.Cl` (stereo not shown) registered a melting point of 222 to 224 °C.

Take `COc1ccc(OC)c(N2CCN(CC(O)COc3ccc(O)cc3C)CC2)c1.Cl.Cl` (stereo not shown): the melting point is 168 to 170 °C (dec.).

For the molecule `COc1ccccc1N1CCN(CC(O)COc2ccc(O)cc2C)CC1.Cl.Cl` (stereo not shown), the melting point is 192 to 194 °C (dec.).

In the case of `COc1ccccc1N1CCN(CC(O)COc2ccc(O)c(C)c2)CC1.Cl.Cl` (stereo not shown), the melting point was 214 to 216 °C (dec.).

Take `COc1ccccc1N1CCN(CC(O)COc2cc(C)c(O)c3ccccc23)CC1` (stereo not shown) [Example 2, 1-(3-Methyl-4-hydroxynaphthoxy)-3-[4-(2-methoxyphenyl)-1-piperazinyl]propan-2-ol]: in data set [1], the “Intraocular pressure, 1 hr” value is listed as 21.8 ± 2.05^*1 mmHg; the “Intraocular pressure, 2 hr” value is recorded as 24.4 ± 1.82 mmHg; the “Intraocular pressure, 3 hr” value is recorded as 25.8 ± 2.39 mmHg; the “Intraocular pressure, 4 hr” value was found to be 26.6 ± 2.88 mmHg. Further, in data set [1], the “Intraocular pressure, 0 hr” value is listed as 25.2 ± 1.30 mmHg. In data set [2], the “Blood pressure, 1 hr” value worked out at 204.0 ± 17.6 mmHg; the “Blood pressure, 2 hr” value is on record as 192.2 ± 6.2^*1 mmHg; the “Blood pressure, 3 hr” value was 191.2 ± 14.6^*1 mmHg; the “Blood pressure, 4 hr” value was 187.8 ± 11.4^*1 mmHg. In addition, the “Blood pressure, 0 hr” value in data set [2] stood at 216.8 ± 18.0 mmHg. Further, in data set [3], inhibition was half-maximal at 23 µM (IC50) and the “Radical scavenging activity (in words)” value is “concentration-dependently exhibited a radical scavenging activity”. The “Radical scavenging rate (%)” value in data set [3] (final concentration 1 μM) worked out at 7.8%. Moreover, the “Radical scavenging rate (%)” value in data set [3] (final concentration 10 μM) is given as 24.9%. Moreover, in data set [3] (final concentration 30 μM), the “Radical scavenging rate (%)” value came to 61.0%. For the same molecule, the “Radical scavenging rate (%)” value in data set [3] (final concentration 100 μM) is 99.4%. For the same molecule, the “Radical scavenging rate (%)” value in data set [3] (final concentration 1000 μM) stood at 99.8%.

`COc1ccccc1N1CCN(CC(O)COc2c(C)cc(O)c3ccccc23)CC1.Cl.Cl` (stereo not shown) [Example 4, 1-(2-Methyl-4-hydroxynaphthoxy)-3-[4-(2-methoxyphenyl)-1-piperazinyl]propan-2-ol dihydrochloride]: in data set [1] (0.5% eye drops), the “Intraocular pressure lowering effect (in words)” value was “a potent intraocular pressure lowering effect was observed since one hour after instillation” and the “Time of peak intraocular pressure lowering effect after instillation” value came out at 2 h. In addition, in data set [1], the “Intraocular pressure, 1 hr” value is on record as 17.3 ± 2.06^*3 mmHg; the “Intraocular pressure, 2 hr” value is 15.0 ± 3.74^*2 mmHg; the “Intraocular pressure, 3 hr” value is 15.8 ± 2.06^*3 mmHg; the “Intraocular pressure, 4 hr” value is 20.8 ± 2.22^*2 mmHg. Further, in data set [1], the “Intraocular pressure, 0 hr” value was determined as 26.5 ± 1.75 mmHg. Besides, in data set [2], the “Blood pressure, 1 hr” value was 201.8 ± 7.7^*3 mmHg; the “Blood pressure, 2 hr” value is reported as 207.8 ± 13.8^*2 mmHg; the “Blood pressure, 3 hr” value is given as 212.2 ± 3.8^*3 mmHg; the “Blood pressure, 4 hr” value is given as 212.2 ± 20.8^*1 mmHg. For the same molecule, the “Blood pressure, 0 hr” value in data set [2] was 240.0 ± 8.5 mmHg. Besides, in data set [3], inhibition was half-maximal at 42 µM (IC50) and the “Radical scavenging activity (in words)” value is “concentration-dependently exhibited a radical scavenging activity”. The “Radical scavenging rate (%)” value in data set [3] (final concentration 1 μM) was found to be 6.7%. Moreover, the “Radical scavenging rate (%)” value in data set [3] (final concentration 10 μM) was 16.6%. Moreover, the “Radical scavenging rate (%)” value in data set [3] (final concentration 30 μM) was found to be 37.7%. The “Radical scavenging rate (%)” value in data set [3] (final concentration 100 μM) was 75.4%. The “Radical scavenging rate (%)” value in data set [3] (final concentration 1000 μM) came to 91.7%.

Take `COc1ccccc1N1CCN(CC(O)COc2cc(C)c(O)c(C)c2)CC1.Cl.Cl` (stereo not shown) [Example 17, 1-(3,5-Dimethyl-4-hydroxyphenoxy)-3-[4-(2-methoxyphenyl)-1-piperazinyl]propan-2-ol dihydrochloride]: the melting point was 208 to 210 °C (dec.). In data set [1], the “Intraocular pressure, 1 hr” value is given as 25.4 ± 2.79^*1 mmHg; the “Intraocular pressure, 2 hr” value is given as 25.4 ± 2.88^*1 mmHg; the “Intraocular pressure, 3 hr” value was 27.0 ± 3.08 mmHg; the “Intraocular pressure, 4 hr” value stood at 28.6 ± 4.22 mmHg. For the same molecule, the “Intraocular pressure, 0 hr” value in data set [1] was found to be 30.0 ± 3.08 mmHg. For the same molecule, in data set [2], the “Blood pressure, 1 hr” value is given as 214.8 ± 9.9^*1 mmHg; the “Blood pressure, 2 hr” value was 230.8 ± 13.0 mmHg; the “Blood pressure, 3 hr” value amounted to 225.0 ± 13.0 mmHg; the “Blood pressure, 4 hr” value is listed as 219.5 ± 10.6 mmHg. In data set [2], the “Blood pressure, 0 hr” value is listed as 247.3 ± 23.2 mmHg.

For `COc1ccccc1N1CCN(CC(O)COc2ccc(O)c(C(C)(C)C)c2)CC1.Cl` (stereo not shown) [Example 20, 1-(3-tert-Butyl-4-hydroxyphenoxy)-3-[4-(2-methoxyphenyl)-1-piperazinyl]propan-2-ol hydrochloride], the melting point fell in the range of 170 to 172 °C. In data set [1], the “Intraocular pressure, 1 hr” value was 22.2 ± 2.59^*1 mmHg; the “Intraocular pressure, 2 hr” value came to 25.2 ± 0.84 mmHg; the “Intraocular pressure, 3 hr” value is on record as 25.8 ± 2.59 mmHg; the “Intraocular pressure, 4 hr” value was found to be 28.0 ± 1.73 mmHg. The “Intraocular pressure, 0 hr” value in data set [1] was 28.0 ± 3.81 mmHg. Also, in data set [2], the “Blood pressure, 1 hr” value is on record as 204.8 ± 16.9^*2 mmHg; the “Blood pressure, 2 hr” value is 215.0 ± 11.0^*2 mmHg; the “Blood pressure, 3 hr” value was 217.5 ± 15.2^*1 mmHg; the “Blood pressure, 4 hr” value was 216.3 ± 18.0^*1 mmHg. The “Blood pressure, 0 hr” value in data set [2] was 250.3 ± 14.3 mmHg.

Turning to `COc1ccccc1N1CCN(CC(O)COc2ccc(O)c(C)c2C)CC1.Cl` (stereo not shown) [Example 22, 1-(2,3-Dimethyl-4-hydroxyphenoxy)-3-[4-(2-methoxyphenyl)-1-piperazinyl]propan-2-ol hydrochloride], the melting point is 228 to 230 °C (dec.). Besides, in data set [2], the “Blood pressure, 1 hr” value is 218.3 ± 11.3^*1 mmHg; the “Blood pressure, 2 hr” value amounted to 231.0 ± 14.5 mmHg; the “Blood pressure, 3 hr” value came out at 236.5 ± 9.1 mmHg; the “Blood pressure, 4 hr” value came to 241.0 ± 9.8 mmHg. Further, the “Blood pressure, 0 hr” value in data set [2] turned out to be 247.0 ± 10.7 mmHg.

For the molecule `COc1ccccc1N1CCN(CC(O)COc2cc(C)c(O)c(C)c2C)CC1` (stereo not shown) [Example 23, 1-(2,3,5-Trimethyl-4-hydroxyphenoxy)-3-[4-(2-methoxyphenyl)-1-piperazinyl]propan-2-ol], the melting point was in the range of 163 to 165 °C. Besides, in data set [1], the “Intraocular pressure, 1 hr” value is listed as 20.8 ± 3.30^*1 mmHg; the “Intraocular pressure, 2 hr” value is given as 22.8 ± 3.40 mmHg; the “Intraocular pressure, 3 hr” value came out at 22.5 ± 3.42 mmHg; the “Intraocular pressure, 4 hr” value came out at 23.8 ± 3.30 mmHg. Moreover, the “Intraocular pressure, 0 hr” value in data set [1] came out at 27.5 ± 3.42 mmHg. In data set [2], the “Blood pressure, 1 hr” value is listed as 193.3 ± 15.4 mmHg; the “Blood pressure, 2 hr” value was 192.0 ± 10.8 mmHg; the “Blood pressure, 3 hr” value is given as 179.3 ± 7.8^*1 mmHg; the “Blood pressure, 4 hr” value was determined as 192.0 ± 15.1 mmHg. For the same molecule, in data set [2], the “Blood pressure, 0 hr” value was determined as 204.0 ± 14.4 mmHg.

`COc1ccc(OC)c(N2CCN(CC(O)COc3ccc(O)cc3)CC2)c1.Cl.Cl` (stereo not shown) [Example 25, 1-(4-Hydroxyphenoxy)-3-[4-(2,5-dimethoxyphenyl)-1-piperazinyl]propan-2-ol dihydrochloride] returned a melting point of 205 to 207 °C. Moreover, in data set [1], the “Intraocular pressure, 1 hr” value is given as 26.8 ± 1.92^*2 mmHg; the “Intraocular pressure, 2 hr” value is listed as 25.4 ± 1.82^*2 mmHg; the “Intraocular pressure, 3 hr” value came out at 28.6 ± 6.11 mmHg; the “Intraocular pressure, 4 hr” value worked out at 29.6 ± 2.07 mmHg. Further, the “Intraocular pressure, 0 hr” value in data set [1] came out at 31.6 ± 2.41 mmHg.
